# Results taken from patent US7344884B2, “Peptides promoting cell adherence, growth and secretion” (Becton, Dickinson and Company, priority 2001, dated 2008).
# Marks after values point to notes of the source that are not given here.
# B1: Collagen-III: extracellular matrix (ECM) control from Becton Dickinson Labware (protein, UniProt P02461 154-1221, looked up)
# Collagen alpha-1(III) chain: QYDSYDVKSGVAVGGLAGYPGPAGPPGPPGPPGTSGHPGSPGSPGYQGPPGEPGQAGPSGPPGPPGAIGPSGPAGKDGESGRPGRPGERGLPGPPGIKGPAGIPGFPGMKGHRGFDGRNGEKGETGAPGLKGENGLPGENGAPGPMGPRGAPGERGRPGLPGAAGARGNDGARGSDGQPGPPGPPGTAGFPGSPGAKGEVGPAGSPGSNGAPGQRGEPGPQGHAGAQGPPGPPGINGSPGGKGEMGPAGIPGAPGLMGARGPPGPAGANGAPGLRGGAGEPGKNGAKGEPGPRGERGEAGIPGVPGAKGEDGKDGSPGEPGANGLPGAAGERGAPGFRGPAGPNGIPGEKGPAGERGAPGPAGPRGAAGEPGRDGVPGGPGMRGMPGSPGGPGSDGKPGPPGSQGESGRPGPPGPSGPRGQPGVMGFPGPKGNDGAPGKNGERGGPGGPGPQGPPGKNGETGPQGPPGPTGPGGDKGDTGPPGPQGLQGLPGTGGPPGENGKPGEPGPKGDAGAPGAPGGKGDAGAPGERGPPGLAGAPGLRGGAGPPGPEGGKGAAGPPGPPGAAGTPGLQGMPGERGGLGSPGPKGDKGEPGGPGADGVPGKDGPRGPTGPIGPPGPAGQPGDKGEGGAPGLPGIAGPRGSPGERGETGPPGPAGFPGAPGQNGEPGGKGERGAPGEKGEGGPPGVAGPPGGSGPAGPPGPQGVKGERGSPGGPGAAGFPGARGLPGPPGSNGNPGPPGPSGSPGKDGPPGPAGNTGAPGSPGVSGPKGDAGQPGEKGSPGAQGPPGAPGPLGIAGITGARGLAGPPGMPGPRGSPGPQGVKGESGKPGANGLSGERGPPGPQGLPGLAGTAGEPGRDGNPGSDGLPGRDGSPGGKGDRGENGSPGAPGAPGHPGPPGPVGPAGKSGDRGESGPAGPAGAPGPAGSRGAPGPQGPRGDKGETGERGAAGIKGHRGFPGNPGAPGSPGPAGQQGAIGSPGPAGPRGPVGPSGPPGKDGTSGHPGPIGPPGPRGNRGERGSEGSPGHPGQPGPPGPPGAPGPCCGGVGAAAIAGIGGEKAGGFAPYYG
# Test system: MC3T3 cells
# Assay: Oxygen biosensor assay of adherence and growth of MC3T3 cells on peptide-coated wells
# Type: cell-based, murine
# Conditions: for Abs at 590 nm (relative oxygen consumption), MDL-400 Library / relative oxygen consumption (Absorbance at 590 nm) / Abs at 590 nm (relative oxygen consumption), Controls: 86 hour time point; for Abs at 590 nm (relative oxygen consumption), MDL-400 Library: single peptide, 50 µl of 1 mM stock dried in well, value normalized to the well's initial reading; for impact on MC3T3 growth (result in words): peptide or control adsorbed to surface, compared with uncoated surface or controls; for Abs at 590 nm (relative oxygen consumption), Controls: 25 µl stock of ECM or known peptide control dried in well, same plate
# Experimental: To identify peptides in a particular library which positively affected cell growth in cell culture, the library was screened in a growth assay. The selected cells were anchorage-dependent MC3T3 cells, which were grown on tissue culture surfaces which had been pre-coated with peptides of the present invention. The screening medium used to evaluate peptides in the library was a low serum medium allowing evaluation of peptide effects with low interference from undefined materials present in the medium. In the present work, growth of MC3T3 cells was assessed in the presence and absence of the peptides in the library which were present in the form of a dried film on a tissue culture substrate. Growth was evaluated in a basal medium rich in amino acids and containing the necessary vitamins, metals and simple carbon source. After an appropriate incubation time, growth of each peptide-supplemented culture is compared to growth of the unsupplemented culture. The extent of growth was evaluated using a Becton Dickinson oxygen sensor to detect oxygen consumption by the cells. The cell number in each well containing a particular peptide was then assessed indirectly with a flurometer which measured fluorescence generated from a fluoroescent dye using band-pass filters of 465 nm for excitation and 590 nm for emission.
# Briefly, the oxygen biosensor is based upon the fluoroscence of ruthenium dye which is quenched in the presence of oxygen. The dye is immobilized within an inert but highly permeable silicone matrix located at the bottom of microtiter wells. […] (Wodnicka, M., Guarino, R. D., Hemperly, J. J. Temmins, M. R., Stitt, D. and Pitner, J. B. (2000) J. of Biomolecular Screening 5:141-152)
# MC3T3-E1 is a clonal line of murine calvaria-derived osteoblast (establishement of a clonal osteogenic Cell Line from Newborn Mouse Calvaria in Jpn J. Oral Biol 23, 899 (1981)).
# MC3T3 cells were maintained in αMEM (GIBCO Catalog No: 12561) supplemented with 2% fetal calf serum (FCS, inactivated) and 100 units or μg/ml of penicillin/streptomycin for one month prior to use. Cells were routinely seeded at a density of approximately 1×10^4 cells per 20 ml culture media which was placed in a 250 ml canted neck polystyrene tissue culture treated flask (Becton Dickinson). Cells were cultured until approximately 2×10^6 cells were obtainable from each flask, which were resuspended in 5 ml of αMEM with 2% FCS for a final cell concentration of about 5×10^4 cells per 150 μl for peptide screening.
# For determining the biological effects of library peptides and appropriate controls on MC3T3 cells, cells (5×10^4/150 μl) were grown in an 96 well oxygen sensor plate treated as described below:
# Peptides for screening were obtained from either a MDL-400 library or an MDL-100 library. Fifty microliters of peptides at a 1 mM stock concentration in phosphate buffered saline were placed in wells of a 96 well oxygen sensor plate and dried in a reverse flow air hood overnight […].
# Vitrogen-collagen-I was obtained from Cohesion (Palo Alto, Calif., Catalog No. FXP-019) and fibronectin was obtained from Sigma (Catalog No. F-0895). All other extracellular matrix (ECM) compounds were obtained from Becton Dickinson Labware, (Bedford, Mass.). Polylysine was obtained from Becton Dickinson Labware and RGDSP-rhodamine was from AnaSpec Inc. (San Jose, Calif.). Extracellular matrix components (ECM) or known peptides were used at the following stock concentrations:
# Twenty-five microliters of stock concentrations of controls and 25 μl of phosphate buffered saline were placed in wells of a 96 well oxygen sensor plate and dried overnight as described above.
# Cells grown on 96 well oxygen sensor plates treated as described above were monitored for growth using a Becton Dickinson oxygen biosensor. Growth was monitored at the following time points: 1 hours, 24 hours, 32 hours, 48 hours and 86 hours. Media was changed every three days. […]
Molecule,"Abs at 590 nm (relative oxygen consumption), MDL-400 Library",impact on MC3T3 growth (result in words),"Abs at 590 nm (relative oxygen consumption), Controls",further results
AFFKI (Synthetic peptide selected for biological activity) [SEQ ID NO:6],2.01*,significant difference in growth,–,–
AFKIF (Synthetic peptide selected for biological activity) [SEQ ID NO:9],2.78*,significant difference in growth,–,relative oxygen consumption (Absorbance at 590 nm): 2.78
AKIFF (Synthetic peptide selected for biological activity) [SEQ ID NO:8],2.08*,significant difference in growth,–,–
Collagen-IV: extracellular matrix (ECM) control from Becton Dickinson Labware [reference compound],–,–,3.14,relative oxygen consumption (Absorbance at 590 nm): 3.14
Collagen-V: extracellular matrix (ECM) control from Becton Dickinson Labware [reference compound],–,–,1.76,–
FAKFI (Synthetic peptide selected for biological activity) [SEQ ID NO:11],2.06*,significant difference in growth,–,–
FIFAK (Synthetic peptide selected for biological activity) [SEQ ID NO:3],2.08*,significant difference in growth,–,–
FIKFG (Synthetic peptide selected for biological activity) [SEQ ID NO:2],2.38*,significant difference in growth,–,impact on MC3T3 growth (result in words) (listed as FIKFG): positive
Fibronectin [reference compound],–,–,2.12,–
IFFKG (Synthetic peptide selected for biological activity) [SEQ ID NO:1],2.53*,significant difference in growth,–,relative oxygen consumption (Absorbance at 590 nm): 2.53; impact on MC3T3 growth (result in words) (listed as IFFKG): positive
KFAFI (Synthetic peptide selected for biological activity) [SEQ ID NO:10],2.11*,significant difference in growth,–,–
Laminin [reference compound],–,–,2.65,relative oxygen consumption (Absorbance at 590 nm): 2.65
Polylysine [reference compound],–,–,1.08,–
QVVAK (Synthetic peptide selected for biological activity) [SEQ ID NO:4],2.11*,significant difference in growth,–,–
RGDSP-rhodamine [reference compound],–,–,1.25,–
VFPFK (Synthetic peptide selected for biological activity) [SEQ ID NO:7],2.06*,significant difference in growth,–,–
B1,–,–,1.45,–
